From ChEMBL document CHEMBL3885881, “DrugMatrix”

Species: Rattus norvegicus
Assay: DrugMatrix - Regimen: Daily Repeat
Type: toxicity, organism-based, Sprague-Dawley
Design: regimen Daily Repeat, gender Male, age 6-8 weeks
Conditions: in vivo, po, route oral GAVAGE, vehicle .5 % CMC; for BASOPHIL / EOSINOPHIL / ERYTHROCYTE COUNT / HEMATOCRIT / HEMOGLOBIN / LEUKOCYTE COUNT / LYMPHOCYTE / MEAN CORPUSCULAR HEMOGLOBIN / MEAN CORPUSCULAR HEMOGLOBIN CONCENTRATION / MEAN CORPUSCULAR VOLUME / MONOCYTE / NEUTROPHIL / PLATELET COUNT: tissue Blood; for ALANINE AMINOTRANSFERASE / ALBUMIN / ALKALINE PHOSPHATASE / ASPARTATE AMINOTRANSFERASE / BLOOD UREA NITROGEN / CHLORIDE / CHOLESTEROL / CREATINE PHOSPHOKINASE / CREATININE / GLUCOSE / PHOSPHORUS / POTASSIUM / SODIUM / TOTAL BILIRUBIN / TOTAL PROTEIN: tissue Plasma
[1] = 0 mg/kg, 72 h, dose level Control, time 3 day
[2] = 0 mg/kg, 120 h, dose level Control, time 5 day
[3] = 10 mg/kg, 72 h, dose level Low, time 3 day
[4] = 10 mg/kg, 120 h, dose level Low, time 5 day
[5] = 1500 mg/kg, 72 h, dose level High, time 3 day
[6] = 1500 mg/kg, 120 h, dose level High, time 5 day

## COc1ccc(Cl)cc1C(=O)NCCc1ccc(S(=O)(=O)NC(=O)NC2CCCCC2)cc1 [GLYBURIDE]
[1]
  BASOPHIL: 0%
  EOSINOPHIL: 0%
  ERYTHROCYTE COUNT: 6.34 x10E6/uL
  HEMATOCRIT: 37.62%
  HEMOGLOBIN: 14.82 G/DL
  LEUKOCYTE COUNT: 11.18 x10E3/uL
  LYMPHOCYTE: 87.5%
  MEAN CORPUSCULAR HEMOGLOBIN: 23.48 pg
  MEAN CORPUSCULAR HEMOGLOBIN CONCENTRATION: 39.5 G/DL
  MEAN CORPUSCULAR VOLUME: 59.45 fL
  MONOCYTE: 1.67%
  NEUTROPHIL: 10.83%
  PLATELET COUNT: 1074.83 x10E3/uL
  ALANINE AMINOTRANSFERASE: 36.5 u/L
  ALBUMIN: 3.9 G/DL
  ALKALINE PHOSPHATASE: 370.17 u/L
  ASPARTATE AMINOTRANSFERASE: 63.17 u/L
  BLOOD UREA NITROGEN: 16.83 mg/dL
  CHLORIDE: 99.33 MEQ/L
  CHOLESTEROL: 64.33 mg/dL
  CREATINE PHOSPHOKINASE: 127 u/L
  CREATININE: 0.55 mg/dL
  GLUCOSE: 173.5 mg/dL
  PHOSPHORUS: 10.08 mg/dL
  POTASSIUM: 6.23 MEQ/L
  SODIUM: 143.5 MEQ/L
  TOTAL BILIRUBIN: 0.52 mg/dL
  TOTAL PROTEIN: 6.35 G/DL
[2]
  BASOPHIL: 0%
  EOSINOPHIL: 0.17%
  ERYTHROCYTE COUNT: 6.12 x10E6/uL
  HEMATOCRIT: 37.08%
  HEMOGLOBIN: 14.82 G/DL
  LEUKOCYTE COUNT: 11.87 x10E3/uL
  LYMPHOCYTE: 83.33%
  MEAN CORPUSCULAR HEMOGLOBIN: 24.25 pg
  MEAN CORPUSCULAR HEMOGLOBIN CONCENTRATION: 39.97 G/DL
  MEAN CORPUSCULAR VOLUME: 60.65 fL
  MONOCYTE: 1.5%
  NEUTROPHIL: 15%
  PLATELET COUNT: 1042.83 x10E3/uL
  ALANINE AMINOTRANSFERASE: 46 u/L
  ALBUMIN: 3.82 G/DL
  ALKALINE PHOSPHATASE: 369.5 u/L
  ASPARTATE AMINOTRANSFERASE: 65 u/L
  BLOOD UREA NITROGEN: 16.33 mg/dL
  CHLORIDE: 100.67 MEQ/L
  CHOLESTEROL: 57.17 mg/dL
  CREATINE PHOSPHOKINASE: 130 u/L
  CREATININE: 0.53 mg/dL
  GLUCOSE: 163.33 mg/dL
  PHOSPHORUS: 9.53 mg/dL
  POTASSIUM: 6.27 MEQ/L
  SODIUM: 144.83 MEQ/L
  TOTAL BILIRUBIN: 0.55 mg/dL
  TOTAL PROTEIN: 6.32 G/DL
[3]
  BASOPHIL: 0%
  EOSINOPHIL: 0.33%
  ERYTHROCYTE COUNT: 6.67 x10E6/uL
  HEMATOCRIT: 40.2%
  HEMOGLOBIN: 15.57 G/DL
  LEUKOCYTE COUNT: 12.13 x10E3/uL
  LYMPHOCYTE: 90.33%
  MEAN CORPUSCULAR HEMOGLOBIN: 23.33 pg
  MEAN CORPUSCULAR HEMOGLOBIN CONCENTRATION: 38.7 G/DL
  MEAN CORPUSCULAR VOLUME: 60.3 fL
  MONOCYTE: 1.33%
  NEUTROPHIL: 8%
  PLATELET COUNT: 1148 x10E3/uL
  ALANINE AMINOTRANSFERASE: 30.33 u/L
  ALBUMIN: 4.1 G/DL
  ALKALINE PHOSPHATASE: 317.67 u/L
  ASPARTATE AMINOTRANSFERASE: 61 u/L
  BLOOD UREA NITROGEN: 15 mg/dL
  CHLORIDE: 99.33 MEQ/L
  CHOLESTEROL: 66.33 mg/dL
  CREATINE PHOSPHOKINASE: 164.67 u/L
  CREATININE: 0.5 mg/dL
  GLUCOSE: 160.33 mg/dL
  PHOSPHORUS: 11.87 mg/dL
  POTASSIUM: 6.23 MEQ/L
  SODIUM: 144.67 MEQ/L
  TOTAL BILIRUBIN: 0.3 mg/dL
  TOTAL PROTEIN: 6.77 G/DL
[4]
  BASOPHIL: 0%
  EOSINOPHIL: 0%
  ERYTHROCYTE COUNT: 6.4 x10E6/uL
  HEMATOCRIT: 37.3%
  HEMOGLOBIN: 14.67 G/DL
  LEUKOCYTE COUNT: 11.77 x10E3/uL
  LYMPHOCYTE: 91.67%
  MEAN CORPUSCULAR HEMOGLOBIN: 22.97 pg
  MEAN CORPUSCULAR HEMOGLOBIN CONCENTRATION: 39.33 G/DL
  MEAN CORPUSCULAR VOLUME: 58.27 fL
  MONOCYTE: 0.67%
  NEUTROPHIL: 7.67%
  PLATELET COUNT: 1048 x10E3/uL
  ALANINE AMINOTRANSFERASE: 33 u/L
  ALBUMIN: 3.77 G/DL
  ALKALINE PHOSPHATASE: 328 u/L
  ASPARTATE AMINOTRANSFERASE: 52.33 u/L
  BLOOD UREA NITROGEN: 13.67 mg/dL
  CHLORIDE: 98.33 MEQ/L
  CHOLESTEROL: 53.33 mg/dL
  CREATINE PHOSPHOKINASE: 128.67 u/L
  CREATININE: 0.57 mg/dL
  GLUCOSE: 174 mg/dL
  PHOSPHORUS: 10.77 mg/dL
  POTASSIUM: 5.8 MEQ/L
  SODIUM: 144.33 MEQ/L
  TOTAL BILIRUBIN: 0.37 mg/dL
  TOTAL PROTEIN: 6.13 G/DL
[5]
  BASOPHIL: 0%
  EOSINOPHIL: 0%
  ERYTHROCYTE COUNT: 6.36 x10E6/uL
  HEMATOCRIT: 37.7%
  HEMOGLOBIN: 14.87 G/DL
  LEUKOCYTE COUNT: 13.87 x10E3/uL
  LYMPHOCYTE: 88.67%
  MEAN CORPUSCULAR HEMOGLOBIN: 23.43 pg
  MEAN CORPUSCULAR HEMOGLOBIN CONCENTRATION: 39.47 G/DL
  MEAN CORPUSCULAR VOLUME: 59.33 fL
  MONOCYTE: 1%
  NEUTROPHIL: 10.33%
  PLATELET COUNT: 1260.33 x10E3/uL
  ALANINE AMINOTRANSFERASE: 32 u/L
  ALBUMIN: 3.4 G/DL
  ALKALINE PHOSPHATASE: 223.33 u/L
  ASPARTATE AMINOTRANSFERASE: 50 u/L
  BLOOD UREA NITROGEN: 12 mg/dL
  CHLORIDE: 104.33 MEQ/L
  CHOLESTEROL: 52.67 mg/dL
  CREATINE PHOSPHOKINASE: 133.33 u/L
  CREATININE: 0.4 mg/dL
  GLUCOSE: 122.67 mg/dL
  PHOSPHORUS: 9.57 mg/dL
  POTASSIUM: 6.9 MEQ/L
  SODIUM: 150.33 MEQ/L
  TOTAL BILIRUBIN: 0.23 mg/dL
  TOTAL PROTEIN: 5.47 G/DL
[6]
  BASOPHIL: 0%
  EOSINOPHIL: 0%
  ERYTHROCYTE COUNT: 6.13 x10E6/uL
  HEMATOCRIT: 36.93%
  HEMOGLOBIN: 14.7 G/DL
  LEUKOCYTE COUNT: 14.7 x10E3/uL
  LYMPHOCYTE: 94.33%
  MEAN CORPUSCULAR HEMOGLOBIN: 24.03 pg
  MEAN CORPUSCULAR HEMOGLOBIN CONCENTRATION: 39.8 G/DL
  MEAN CORPUSCULAR VOLUME: 60.3 fL
  MONOCYTE: 0.67%
  NEUTROPHIL: 5%
  PLATELET COUNT: 1089.67 x10E3/uL
  ALANINE AMINOTRANSFERASE: 37 u/L
  ALBUMIN: 3.67 G/DL
  ALKALINE PHOSPHATASE: 297.33 u/L
  ASPARTATE AMINOTRANSFERASE: 58.33 u/L
  BLOOD UREA NITROGEN: 12.67 mg/dL
  CHLORIDE: 99.67 MEQ/L
  CHOLESTEROL: 63.33 mg/dL
  CREATINE PHOSPHOKINASE: 139.33 u/L
  CREATININE: 0.5 mg/dL
  GLUCOSE: 135 mg/dL
  PHOSPHORUS: 11.5 mg/dL
  POTASSIUM: 6.2 MEQ/L
  SODIUM: 145.33 MEQ/L
  TOTAL BILIRUBIN: 0.33 mg/dL
  TOTAL PROTEIN: 5.93 G/DL
